Usually MIC stands for the smallest concentration in the dilution series that meets the test's criterion for growth inhibition. As usually defined, the IC50 is the concentration needed to halve the response being measured.

Each structure is given as a SMILES string.

The subject of test [1] is E. cloacae 144200 expressing Class C P99 AmpC. Nature of the test: Broth microdilution MIC assay, partner ceftazidime.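 Further: ceftazidime held fixed at 4 µg/mL.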 In kind it is cell-based. Conditions: Enterobacter cloacae, read-out: MIC of Exemplary Compounds in presence of fixed β-lactams, Fixed CAZ, E. cl. 144200 p99 AmpC. (Broth dilution looks for growth in wells or tubes with falling amounts of substance.)
Test [2] deals with K. pneumoniae 156319 expressing KPC-3. Description: Broth microdilution MIC assay, partner meropenem. The format is cell-based. Conditions: Klebsiella pneumoniae, read-out: MIC of Exemplary Compounds in presence of fixed β-lactams, Fixed Mero, K.P. 156319 KPC-3.
Test [3] concerns S. aureus MSSA-7 producing penicillinase PC-1. Nature of the test: Broth microdilution MIC assay, partner piperacillin. The format is cell-based. Conditions: Staphylococcus aureus, fixed piperacillin 4 μg/mL, read-out: MIC of Exemplary Compounds in presence of fixed β-lactams, Fixed Pip, S. aureus MSSA-7 PC-1.
Test [4] has as its system E. coli ESBL4 expressing CTX-M-15. Description: Broth microdilution MIC assay, partner ceftazidime.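 Further: ceftazidime held fixed at 4 µg/mL.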 In kind it is cell-based. Conditions: Escherichia coli, read-out: MIC of Exemplary Compounds in presence of fixed β-lactams, Fixed CAZ, E. coli ESBL4 CTX-M-15.
The next test deals with T1, VIM-2 (Escherichia coli, UniProt Q5U7L7).
T1 construct: made in house; host or cells: E. coli BL21(DE3)
Description: β-Lactamase enzyme inhibition assay, VIM-2 (nitrocefin substrate). In kind it is biochemical. Conditions: nitrocefin substrate 100 μM, 15 min preincubation at 37° C.; read-out: IC50, Class B VIM-2. On the procedure:
For Vim-2 metallo β-lactamase, the procedure was identical with the following exceptions, first the protein was not pH adjusted to pH 5 with 50 mM sodium acetate, second, the chromatography step was changed to a 5 ml Q sepharose anion exchange column pre-equilibrated with 50 mM Hepes pH 7.5, and elution of the protein was achieved by a linear gradient of NaCl (0-600 mM). Finally, the VIM-2 purification required a second run (3rd step) on the Q sepharose anion exchange column to achieve acceptable purity (>90%).
An equal volume of diluted enzyme stock was added, and the plates were incubated at 37° C. for 15 min. Nitrocefin was used as substrate for p99 AmpC, VIM-2 and OXA-1 and dispensed into each well at a final concentration of 100 μM. Absorbance at 486 nm was immediately monitored for 10 min using a Biotek Powerwave XS2 microplate spectrophotometer using the GEN5 softweare package (Biotek Instruments, Winooski Vt.). In an analogous fashion, imipenem was used as substrate for Kpc-2 and Cefotaxime was used for SHV-5, while changes in absorbance upon hydrolysis of the β-lactam ring were monitored at 300 nm and 260 nm respectively in UV-transparent 96-well microtiter assay plates. Maximum rates of hydrolysis were compared to those in control wells (without inhibitors), and percentages of enzyme inhibition were calculated for each concentration of inhibitor. The concentration of inhibitor needed to reduce the initial rate of hydrolysis of substrate by 50% (IC50) was calculated as the residual activity of β-lactamase at 486 nm using GraFit version 7 kinetics software package (Erithacus Software, Surrey, UK).
Using the methodology described above, examples of the current invention were evaluated for their ability to inhibit β-lactamase enzymes from all four Ambler classifications (A through D). […] NT=Not tested.

Test [5] relates to K. pneumoniae A-1797 expressing KPC-2 and VIM-4. Nature of the test: Broth microdilution MIC assay, partner meropenem. In kind it is cell-based. Conditions: Klebsiella pneumoniae, read-out: MIC of Exemplary Compounds in presence of fixed β-lactams, Fixed Mero, K.P. A-1797 KPC-2 VIM-4.
Test [6] deals with P. aeruginosa Ps296 expressing VIM-2. Nature of the test: Broth microdilution MIC assay, partner meropenem. In kind it is cell-based. As to conditions: Pseudomonas aeruginosa, read-out: MIC of Exemplary Compounds in presence of fixed β-lactams, Fixed Mero, P. aerug. Ps296 VIM-2.

For `NC1=Nc2cc(C(=O)N[C@H]3Cc4cccc(C(=O)O)c4OB3O)ccc2CN1` [Example 15, (R)-3-(2-amino-3,4-dihydroquinazoline-7-carboxamido)-2-hydroxy-3,4-dihydro-2H-benzo[e][1,2]oxaborinine-8-carboxylic acid], the MIC in test [1] was less than 4 µg/mL; in test [2] it was 8 to 32 µg/mL; in test [3] it was less than 4 µg/mL; in test [4], less than 4 µg/mL; in test [5], 8 to 32 µg/mL; in test [6], less than 4 µg/mL. Further, the half-inhibitory concentration (IC50) on VIM-2 lay within 1000 to 10000 nM.
Take `N=C(N)N1Cc2ccc(C(=O)N[C@H]3Cc4cccc(C(=O)O)c4OB3O)cc2C1` [Example 16, (R)-3-(2-carbamimidoylisoindoline-5-carboxamido)-2-hydroxy-3,4-dihydro-2H-benzo[e][1,2]oxaborinine-8-carboxylic acid]: the MIC in test [1], in test [2], in test [3], in test [4], in test [5] and in test [6] was less than 4 µg/mL throughout. For the same compound, the IC50 at VIM-2 was less than 100 nM.
In the case of `NC1=NCc2ccc(C(=O)N[C@H]3Cc4cccc(C(=O)O)c4OB3O)cc2CN1` [Example 17, (R)-3-(3-amino-4,5-dihydro-1H-benzo[e][1,3]diazepine-7-carboxamido)-2-hydroxy-3,4-dihydro-2H-benzo[e][1,2]oxaborinine-8-carboxylic acid], the MIC in test [1] was less than 4 µg/mL; in test [2] it was less than 4 µg/mL; in test [3], less than 4 µg/mL; in test [4] it was less than 4 µg/mL; in test [5] it was less than 4 µg/mL; in test [6], 8 to 32 µg/mL. Besides, at VIM-2, the IC50 is less than 100 nM.
In the case of `CN(C)Cc1ccc(C(=O)N[C@H]2Cc3cccc(C(=O)O)c3OB2O)cc1N` [Example 18, (R)-3-(3-amino-4-((dimethylamino)methyl)benzamido)-2-hydroxy-3,4-dihydro-2H-benzo[e][1,2]oxaborinine-8-carboxylic acid], the MIC in test [1], in test [2], in test [3], in test [4], in test [5] and in test [6] was less than 4 µg/mL in each case. In addition, the IC50 at VIM-2 fell in the range of 100 to 1000 nM.
Consider `CNCc1ccc(C(=O)N[C@H]2Cc3cccc(C(=O)O)c3OB2O)cc1CNC` [Example 19, (R)-3-(3,4-bis((methylamino)methyl)benzamido)-2-hydroxy-3,4-dihydro-2H-benzo[e][1,2]oxaborinine-8-carboxylic acid], for which the MIC in test [1], in test [2], in test [3], in test [4], in test [5] and in test [6] was less than 4 µg/mL throughout. At VIM-2, the half-maximal inhibitory concentration (IC50) is less than 100 nM.
Take `NCc1ccc(CC(=O)N[C@H]2Cc3cccc(C(=O)O)c3OB2O)cc1CN` [Example 20, (R)-3-(2-(3,4-bis(aminomethyl)phenyl)acetamido)-2-hydroxy-3,4-dihydro-2H-benzo[e][1,2]oxaborinine-8-carboxylic acid]: the MIC in test [1], in test [2], in test [3], in test [4], in test [5] and in test [6] was less than 4 µg/mL in each case. The 50% inhibitory concentration (IC50) at VIM-2 was less than 100 nM.
Consider `CN(C)Cc1ccc(C(=O)N[C@H]2Cc3cccc(C(=O)O)c3OB2O)cc1NC(=O)[C@@H](N)CN` [Example 21, (R)-3-(3-((S)-2,3-diaminopropanamido)-4-((dimethylamino)methyl)benzamido)-2-hydroxy-3,4-dihydro-2H-benzo[e][1,2]oxaborinine-8-carboxylic acid], for which the minimum inhibitory concentration (MIC) is less than 4 µg/mL in test [1]; 8 to 32 µg/mL in test [2]; 8 to 32 µg/mL in test [3]; less than 4 µg/mL in test [4]; 8 to 32 µg/mL in test [5]; more than 32 µg/mL in test [6]. For the same compound, at VIM-2, the IC50 was less than 100 nM.
Consider `Cc1ccc(C(=O)N[C@H]2Cc3cccc(C(=O)O)c3OB2O)cc1NC(=O)[C@@H](N)CN` [Example 22, (R)-3-(3-((S)-2,3-diaminopropanamido)-4-methylbenzamido)-2-hydroxy-3,4-dihydro-2H-benzo[e][1,2]oxaborinine-8-carboxylic acid], for which the minimum inhibitory concentration (MIC) in test [1] was less than 4 µg/mL; in test [2], less than 4 µg/mL; in test [3], less than 4 µg/mL; in test [4], less than 4 µg/mL; in test [5] it was 8 to 32 µg/mL; in test [6], more than 32 µg/mL. Besides, the IC50 at VIM-2 lay in the range of 100 to 1000 nM.
For the compound `Cc1ccc(C(=O)N[C@H]2Cc3cccc(C(=O)O)c3OB2O)cc1N` [Example 23, (R)-3-(3-amino-4-methylbenzamido)-2-hydroxy-3,4-dihydro-2H-benzo[e][1,2]oxaborinine-8-carboxylic acid], the MIC in test [1] was less than 4 µg/mL; in test [2], less than 4 µg/mL; in test [3], less than 4 µg/mL; in test [4], less than 4 µg/mL; in test [5], 8 to 32 µg/mL; in test [6], 8 to 32 µg/mL. Moreover, the half-inhibitory concentration (IC50) on VIM-2 is 100 to 1000 nM.
For `O=C(N[C@H]1Cc2cccc(C(=O)O)c2OB1O)c1ccc(-c2ccccn2)cc1` [Example 24, (R)-2-hydroxy-3-(4-(pyridin-2-yl)benzamido)-3,4-dihydro-2H-benzo[e][1,2]oxaborinine-8-carboxylic acid], the minimum inhibitory concentration (MIC) in test [1] is less than 4 µg/mL; in test [2], 8 to 32 µg/mL; in test [3], less than 4 µg/mL; in test [4], less than 4 µg/mL; in test [5] it was 8 to 32 µg/mL; in test [6] it was 8 to 32 µg/mL. Besides, the half-maximal inhibitory concentration (IC50) at VIM-2 lay within 100 to 1000 nM.
For `N=C(N)NCc1ccc(C(=O)N[C@H]2Cc3cccc(C(=O)O)c3OB2O)cc1CNC(=N)N` [Example 25, (R)-3-(3,4-bis(guanidinomethyl)benzamido)-2-hydroxy-3,4-dihydro-2H-benzo[e][1,2]oxaborinine-8-carboxylic acid], the MIC in test [1], in test [2], in test [3], in test [4], in test [5] and in test [6] was less than 4 µg/mL throughout. On VIM-2, the half-maximal inhibitory concentration (IC50) is less than 100 nM.
On to `O=C(N[C@H]1Cc2cccc(C(=O)O)c2OB1O)c1ccc2[nH]ccc2c1` [Example 26, (R)-2-hydroxy-3-(1H-indole-5-carboxamido)-3,4-dihydro-2H-benzo[e][1,2]oxaborinine-8-carboxylic acid], for which the minimal inhibitory concentration (MIC) in test [1] was less than 4 µg/mL; in test [2], less than 4 µg/mL; in test [3], less than 4 µg/mL; in test [4] it was less than 4 µg/mL; in test [5], 8 to 32 µg/mL; in test [6], 8 to 32 µg/mL. Also, on VIM-2, the IC50 is 100 to 1000 nM.
Take `O=C(N[C@H]1Cc2cccc(C(=O)O)c2OB1O)c1ccc(-c2ccncc2)cc1` [Example 27, (R)-2-hydroxy-3-(4-(pyridin-4-yl)benzamido)-3,4-dihydro-2H-benzo[e][1,2]oxaborinine-8-carboxylic acid]: the minimum inhibitory concentration (MIC) in test [1] is less than 4 µg/mL; in test [2] it was more than 32 µg/mL; in test [3], less than 4 µg/mL; in test [4], less than 4 µg/mL; in test [5] it was more than 32 µg/mL; in test [6] it was more than 32 µg/mL. For the same compound, the IC50 at VIM-2 is 1000 to 10000 nM.
